One test has as its target T1, human MMP-17 (Homo sapiens, UniProt Q9ULZ9).
T1 sequence (Q9ULZ9 126-300 limits assumed): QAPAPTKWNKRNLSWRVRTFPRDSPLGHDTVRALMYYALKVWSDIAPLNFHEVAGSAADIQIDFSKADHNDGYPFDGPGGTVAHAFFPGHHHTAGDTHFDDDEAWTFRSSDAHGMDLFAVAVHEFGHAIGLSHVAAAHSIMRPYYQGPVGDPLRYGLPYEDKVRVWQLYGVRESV
Nature of the test: MMP-17 inhibition test. It is filed as biochemical. The conditions noted are these: read-out: Inhibitory activity (IC50, nM) MMP-17. The method, then:
(§1) MMP inhibition tests can be carried out, for example, using a fluorescent synthetic substrate based on the methods described in Bickett et al. (D. Mark Bickett et al., Anal. Biochem., 1993, 212, 58-64) and Nagase et al. (H. Nagase et al., J. Biol. Chem., 1994, 269, 20952-20957). The method for each MMP inhibition test is shown below.
90 μL (5.8 ng) of human MMP-17 (Calbiochem #475940) prepared with an assay buffer A was added to 90 μL of a 20 μM fluorescent substrate (MOCAc-Pro-Leu-Gly-Leu-A2pr(Dnp)-Ala-Arg-NH2, Peptide Institute Inc., #3163-v) (SEQ ID NO: 3) prepared with an assay buffer B, and reacted at room temperature for 5 hours. Enzyme activity was then determined by measuring with a fluorescence intensity meter (Labsystems, Fluoroskan Ascent) at an excitation wavelength of 320 nm and a measurement wavelength of 405 nm.
From the enzyme activity in the presence or the absence of the test substance, the inhibition rate was determined, and the 50% inhibitory concentration (IC50) of the test substance was calculated.

Test [1] relates to auricular oedema induced by TPA. Nature of the test: Inhibition test of auricular oedema induced by single application of TPA in mouse. Type of test: in vivo, BALB/c mice. The procedure: Auricular oedema was induced by applying 54 μmol/L TPA-acetone solution on both the inner and outer sides of the left ear of BALB/c mice (application volume of 54 μmol/L TPA-acetone solution is 10 μL for each side of the left ear (i.e. 1.08 nmol TPA/auricle)). For a non-induced group, acetone was similarly applied instead of the 54 μmol/L TPA-acetone solution. […] Auricle thickness was measured under ether anesthesia the day before TPA application and 6 hours after TPA application for evaluation of the auricular oedema inhibition effect of the test substance based on the increase in auricle thickness as an index.
The auricular oedema inhibition rate (%) of the test substance was calculated based on the following formula using (A) the average value of the increase in auricular thickness of the group administered with the test substance, (B) the average value of the increase in auricular thickness of the non-induced group, and (C) the average value of the increase in auricular thickness of the control group. […]
The auricular oedema inhibition rate (%) of etanercept was calculated based on the following formula using (B) the average value of the increase in auricular thickness of the non-induced group, (D) the average value of the increase in auricular thickness of the etanercept group, and (E) the average value of the increase in auricular thickness of the hIgG group. […]

The next test addresses T2, human MMP-2 (Homo sapiens, UniProt P08253).
T2 construct: purchased Calbiochem 444213
T2 sequence (P08253 110-660): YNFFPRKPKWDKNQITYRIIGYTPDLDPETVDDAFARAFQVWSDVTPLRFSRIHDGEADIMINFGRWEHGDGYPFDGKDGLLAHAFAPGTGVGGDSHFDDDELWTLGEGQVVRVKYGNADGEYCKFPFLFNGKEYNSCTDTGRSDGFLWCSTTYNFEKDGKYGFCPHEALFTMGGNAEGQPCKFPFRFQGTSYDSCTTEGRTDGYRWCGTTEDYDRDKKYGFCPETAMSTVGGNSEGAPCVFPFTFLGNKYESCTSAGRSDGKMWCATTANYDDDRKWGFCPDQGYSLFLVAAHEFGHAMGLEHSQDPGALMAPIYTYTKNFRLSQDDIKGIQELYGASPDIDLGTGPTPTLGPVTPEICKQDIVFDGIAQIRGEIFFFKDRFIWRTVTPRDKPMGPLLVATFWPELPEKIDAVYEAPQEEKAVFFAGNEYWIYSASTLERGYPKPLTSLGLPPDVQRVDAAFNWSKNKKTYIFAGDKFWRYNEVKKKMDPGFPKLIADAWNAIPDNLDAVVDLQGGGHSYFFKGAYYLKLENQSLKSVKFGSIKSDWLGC
Nature of the test: MMP-2 inhibition test. It is filed as biochemical. The conditions noted are these: read-out: Inhibitory activity (IC50, nM) MMP-2. The procedure:
as §1
90 μL (5 ng) of human MMP-2 (Calbiochem #444213) was mixed with 10 μL of 10 mM APMA, and activated by reacting at 37° C. for 1 hour. 10 μL of the resultant enzyme solution was diluted to 90 μL with an assay buffer A. The mixture was added to 90 μL of a 20 μM fluorescent substrate (MOCAc((7-methoxycoumarin-4-yl)acetyl)-Pro-Leu-Gly-Leu-A2pr(Dnp)-Ala-Arg-NH2, Peptide Institute Inc., #3163-v) (SEQ ID NO: 3) prepared with an assay buffer B, and reacted at 37° C. for 5 hours. Enzyme activity was then determined by measuring with a fluorescence intensity meter (Labsystems, Fluoroskan Ascent) at an excitation wavelength of 320 nm and a measurement wavelength of 405 nm.
From the enzyme activity in the presence or the absence of the test substance, the inhibition rate was determined, and the 50% inhibitiory concentration (IC50) of the test substance was calculated.

In the case of `Cc1cccn(CC2(c3ccc(F)c(F)c3)NC(=O)NC2=O)c1=O` (single isomer, unassigned; (+)) [(+)-5-(3,4-difluorophenyl)-5-[(3-methyl-2-oxopyridin-1(2H)-yl)methyl]imidazolidine-2,4-dione], the IC50 at human MMP-17 and at human MMP-2 was more than 10000 nM each time. The “Auricular oedema inhibition rate (%)” value in test [1] (BALB/c mice, topical 1 w/v % solution, 10 μL each side of left ear, 1 hour before TPA, auricle thickness 6 hours after TPA) worked out at 62%. The “Etanercept ratio (inhibition rate of test substance / inhibition rate of etanercept)” value in test [1] (etanercept 1 mg/mouse intravenously as positive control) is recorded as 3.4.

Source of the values: patent US9518041B2, “(+)-5-(3,4-difluorophenyl)-5-[(3-methyl-2-oxopyridin-1(2H)-yl)methyl]imidazolidine-2,4-dione and drug containing same” (KAKEN PHARMACEUTICAL CO., LTD., priority 2013, dated 2016).
